According to ChEMBL document CHEMBL1201862, “PubChem BioAssay data set” (2004):
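Briefly, cells in 96-well plates were exposed to five compound concentrations for 48 h, and endpoints were estimated by linear interpolation. The concentration for 50% growth inhibition is given as GI50.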 Activity calls are given as the source filed them. Cut-off read from the data, not from the text of the source: active = GI50 up to about 1.1 µM and inactive = higher.

Assays:
Test in all cases: NCI-60 cell line screen, 48 h
786-0 = system: 786-0
A549 = system: A549
ACHN = system: ACHN
CCRF-CEM = system: CCRF-CEM
COLO 205 = system: COLO 205
DLD-1 = system: DLD-1
DMS-114 = system: DMS-114
DMS-273 = system: DMS-273
EKVX = system: EKVX
HCC 2998 = system: HCC 2998
HCT-116 = system: HCT-116
HL-60 = system: HL-60
HOP-18 = system: HOP-18
HOP-62 = system: HOP-62
HOP-92 = system: HOP-92
HT-29 = system: HT-29
IGROV-1 = system: IGROV-1
K562 = system: K562
KM-20L2 = system: KM-20L2
KM12 = system: KM12
LOX IMVI = system: LOX IMVI
LXFL 529 = system: LXFL 529
M14 = system: M14
M19-MEL = system: M19-MEL
MOLT-4 = system: MOLT-4
Malme-3M = system: Malme-3M
NCI-H226 = system: NCI-H226
NCI-H23 = system: NCI-H23
NCI-H460 = system: NCI-H460
NCI-H522 = system: NCI-H522
OVCAR-3 = system: OVCAR-3
OVCAR-8 = system: OVCAR-8
RPMI-8226 = system: RPMI-8226
RXF 393 = system: RXF 393
SF-268 = system: SF-268
SF-295 = system: SF-295
SF-539 = system: SF-539
SK-MEL-28 = system: SK-MEL-28
SK-MEL-2 = system: SK-MEL-2
SK-MEL-5 = system: SK-MEL-5
SK-OV-3 = system: SK-OV-3
SN12C = system: SN12C
SNB-19 = system: SNB-19
SNB-75 = system: SNB-75
SNB-78 = system: SNB-78
SW-620 = system: SW-620
TK-10 = system: TK-10
U-251 = system: U-251
UACC-257 = system: UACC-257
UACC-62 = system: UACC-62
UO-31 = system: UO-31
XF498 = system: XF498
A498 = system: A498
CAKI-1 = system: CAKI-1
HCT-15 = system: HCT-15
OVCAR-4 = system: OVCAR-4
OVCAR-5 = system: OVCAR-5

C#C[C@]1(O)CCC2C3CCc4cc(Oc5nc(F)nc(-n6c(C)nc7cc8ccccc8cc76)n5)ccc4C3CCC21C (some centres undefined)
GI50 (786-0): 57 µM (inactive)
GI50 (A549): 41.5 µM (inactive)
GI50 (ACHN): 61.4 µM (inactive)
GI50 (CCRF-CEM): 36.9 µM (inactive)
GI50 (COLO 205): 20.6 µM (inactive)
GI50 (DLD-1): 53.3 µM (inactive)
GI50 (DMS-114): 20.6 µM (inactive)
GI50 (DMS-273): 20.8 µM (inactive)
GI50 (EKVX): 9.35 µM (inactive)
GI50 (HCC 2998): 53.5 µM (inactive)
GI50 (HCT-116): 32.8 µM (inactive)
GI50 (HL-60): 31.1 µM (inactive)
GI50 (HOP-18): 30.6 µM (inactive)
GI50 (HOP-62): 35.7 µM (inactive)
GI50 (HOP-92): 16.3 µM (inactive)
GI50 (HT-29): 31 µM (inactive)
GI50 (IGROV-1): 54.3 µM (inactive)
GI50 (K562): 34 µM (inactive)
GI50 (KM-20L2): 32.4 µM (inactive)
GI50 (KM12): 32.7 µM (inactive)
GI50 (LOX IMVI): 40.1 µM (inactive)
GI50 (LXFL 529): 41.1 µM (inactive)
GI50 (M14): 43.8 µM (inactive)
GI50 (M19-MEL): 37.1 µM (inactive)
GI50 (MOLT-4): 27.4 µM (inactive)
GI50 (Malme-3M): 47.3 µM (inactive)
GI50 (NCI-H226): 47.8 µM (inactive)
GI50 (NCI-H23): 59.4 µM (inactive)
GI50 (NCI-H460): 25.4 µM (inactive)
GI50 (NCI-H522): 37.3 µM (inactive)
GI50 (OVCAR-3): 50.1 µM (inactive)
GI50 (OVCAR-8): 39.1 µM (inactive)
GI50 (RPMI-8226): 38.2 µM (inactive)
GI50 (RXF 393): 48.9 µM (inactive)
GI50 (SF-268): 47.6 µM (inactive)
GI50 (SF-295): 33.8 µM (inactive)
GI50 (SF-539): 31.6 µM (inactive)
GI50 (SK-MEL-28): > 10 µM (inactive)
GI50 (SK-MEL-2): 45.3 µM (inactive)
GI50 (SK-MEL-5): 35.6 µM (inactive)
GI50 (SK-OV-3): 62.1 µM (inactive)
GI50 (SN12C): 37.5 µM (inactive)
GI50 (SNB-19): 53.1 µM (inactive)
GI50 (SNB-75): 35.6 µM (inactive)
GI50 (SNB-78): 75.3 µM (inactive)
GI50 (SW-620): 35 µM (inactive)
GI50 (TK-10): 65.9 µM (inactive)
GI50 (U-251): 36.2 µM (inactive)
GI50 (UACC-257): 86.5 µM (inactive)
GI50 (UACC-62): 29.2 µM (inactive)
GI50 (UO-31): 75.2 µM (inactive)
GI50 (XF498): 61 µM (inactive)

CC1=Nn2c(nnc2-c2ccc(Cl)cc2)NC(C)(C)C1
GI50 (786-0): > 100 µM (inactive)
GI50 (A498): > 100 µM (inactive)
GI50 (A549): > 100 µM (inactive)
GI50 (ACHN): > 100 µM (inactive)
GI50 (CAKI-1): > 100 µM (inactive)
GI50 (CCRF-CEM): > 100 µM (inactive)
GI50 (COLO 205): > 100 µM (inactive)
GI50 (DLD-1): > 100 µM (inactive)
GI50 (DMS-114): > 100 µM (inactive)
GI50 (DMS-273): > 100 µM (inactive)
GI50 (EKVX): > 100 µM (inactive)
GI50 (HCC 2998): > 100 µM (inactive)
GI50 (HCT-15): > 100 µM
GI50 (HL-60): > 100 µM (inactive)
GI50 (HOP-18): > 100 µM (inactive)
GI50 (HOP-62): > 100 µM (inactive)
GI50 (HOP-92): > 100 µM (inactive)
GI50 (HT-29): > 100 µM (inactive)
GI50 (IGROV-1): > 100 µM (inactive)
GI50 (K562): > 100 µM (inactive)
GI50 (KM-20L2): > 100 µM (inactive)
GI50 (KM12): > 100 µM (inactive)
GI50 (LOX IMVI): > 100 µM (inactive)
GI50 (LXFL 529): > 100 µM (inactive)
GI50 (M14): > 100 µM (inactive)
GI50 (M19-MEL): > 100 µM (inactive)
GI50 (MOLT-4): > 100 µM (inactive)
GI50 (Malme-3M): > 100 µM (inactive)
GI50 (NCI-H226): > 100 µM (inactive)
GI50 (NCI-H23): > 100 µM (inactive)
GI50 (NCI-H460): > 100 µM (inactive)
GI50 (NCI-H522): > 100 µM (inactive)
GI50 (OVCAR-3): > 100 µM (inactive)
GI50 (OVCAR-4): > 100 µM (inactive)
GI50 (OVCAR-5): > 100 µM (inactive)
GI50 (RPMI-8226): > 100 µM (inactive)
GI50 (SF-268): > 100 µM (inactive)
GI50 (SF-295): > 100 µM (inactive)
GI50 (SF-539): > 100 µM (inactive)
GI50 (SK-MEL-28): > 100 µM (inactive)
GI50 (SK-MEL-2): > 100 µM (inactive)
GI50 (SK-MEL-5): > 100 µM (inactive)
GI50 (SK-OV-3): > 100 µM (inactive)
GI50 (SNB-19): > 100 µM (inactive)
GI50 (SNB-78): > 100 µM (inactive)
GI50 (SW-620): > 100 µM (inactive)
GI50 (TK-10): > 100 µM (inactive)
GI50 (U-251): > 100 µM (inactive)
GI50 (UACC-257): > 100 µM (inactive)
GI50 (UACC-62): > 100 µM (inactive)
GI50 (UO-31): > 100 µM (inactive)
GI50 (XF498): > 100 µM (inactive)
